Paper PMC12112033, “Application of Lipophilic Prodrug Charge Masking Strategy to Obtain Novel, Potential Oxytocin Prodrugs” (International Journal of Molecular Sciences, 2025)

What was measured:
[1] = in vitro; settings: for Papp at 5 h, 10 µM: PAMPA, pH 7.4, Papp ± SD (PAMPA)
Text: The permeability of OT and its prodrugs was estimated by the PAMPA test (Corning, Gentest PAMPA Plate System). The PAMPA method is a common method for the permeability evaluation of early drug candidates. Although this system lacks transporters, paracellular pathway enzymes, and other cell-associated processes, it measures passive diffusion, the primary mechanism by which drugs traverse biological barriers. Consequently, due to its low cost, high throughput, and relative handling ease, it serves as screening tool for predicting drugs absorption potential. The PAMPA reflects the passive transport through biological membranes, and its results are reported to correlate with those obtained from the Caco-2 cell model.
A Gentest Pre-coated PAMPA Plate System was purchased from Corning® (Tewksbury, MA, USA). The assay was performed according to the provider instructions, following Caco-2 convention, where the top well is a donor well. The 10 µM solutions of OT, prodrugs, and permeability markers were prepared in PBS buffer, pH 7.4, from 1 mM stock solutions in dimethyl sulfoxide (DMSO). A total of 300 µL per well of tested compounds was added to the donor, filter plate, which, after distribution of all samples, was coupled with acceptor plate filed with 200 µL of phosphate-buffered saline (PBS) per well. All compounds were measured in triplicate. After 5 h of incubation at 25 °C, 200 µL samples were collected from acceptor and donor wells and analyzed using UHPLC-MS to determine concentrations of compounds.

[2] = test system: Caco-2 cell monolayer; test: Caco-2 monolayer integrity by TEER before and after treatment; format: cell-based, human; settings: 100 µg/mL, 2 h treatment
Protocol: This assessment was performed using a dose (100 µg/mL) and treatment time (2 h) similar to those applied in the intestinal transport analysis.
Caco-2 cells were cultured at 37 °C under a 5% CO2 atmosphere using Dulbecco’s Modified Eagle’s Medium (DMEM), supplemented with 20% (v/v) fetal bovine serum, non-essential amino acids 100×, and gentamycin (50 mg/mL). […] The culture medium was replaced every 2 days.

[3] = in vitro; settings: human, Caco-2
Protocol: (§1) The transport of OT and its derivatives (Oct-OT, Hoc-OT, Dec-OT, Dod-OT) selected for further in vitro studies was evaluated at a target concentration of approximately 100 µg/mL. Intestinal transport was initiated by adding the tested compounds to the apical compartment for absorptive transport determination. The solutions from the acceptor compartments were sampled at 20-minute intervals to analyze the concentration of transported compounds.
(§2) The Caco-2 cell line (ATCC HTB-37), derived from human colon adenocarcinoma, was obtained from the American Type Culture Collection (ATCC, Manassas, VA, USA). Caco-2 cells were cultured at 37 °C under a 5% CO2 atmosphere using Dulbecco’s Modified Eagle’s Medium (DMEM), supplemented with 20% (v/v) fetal bovine serum, non-essential amino acids 100×, and gentamycin (50 mg/mL). For experiments, the Caco-2 cells were plated at a density of 4 × 10^5 cells per cm^2 on polyethylene terephthalate (PET) capillary pore membranes with a pore size of 0.4 μm and a growth surface area of 1.13 cm^2 (Greiner PET hanging). The culture medium was replaced every 2 days. All experiments were performed on differentiated Caco-2 cell monolayers 21 days post-seeding. To check the integrity of the Caco-2 monolayer, transepithelial electrical resistance (TEER) was measured by employing the Millicell Electrical Resistance System (Millipore, Bedford, MA, USA). Moreover, fluorescein-5(6)-sulfonic acid was used as a transport marker, added to the apical side of the Caco-2 cultures at 200 μg/mL concentration. Fluoresceinated sulfonic acid, with a molecular weight of 478 Da, is a hydrophilic, charged molecule at physiological pH and is considered cell impermeable. Unless specified otherwise, all chemicals were purchased from Merck KGaA (Darmstadt, Germany).
(§3) The analyzed compounds at non-cytotoxic concentration of approximately 100 μg/mL were prepared in Hank’s balanced salt solution (HBSS), which was adapted as a transport medium. […] Before the experiments, the Caco-2 monolayers were washed twice with HBSS and pre-incubated at 37 °C for 30 min. Transport was initiated by adding HBSS to the acceptor (basolateral) side and the analyzed compound to the donor (apical) side, which mimicked absorptive intestinal transport. The Caco-2 cell cultures were placed in the incubator (37 °C) and continuously agitated using a plate shaker (120 rpm). At 20 min intervals, a sample was taken from the acceptor compartment, and HPLC analyzed the concentration of the transported compound. Each sample volume was replaced with fresh HBSS warmed to 37 °C. To quantify the transport of compound across the Caco-2 cell monolayer, the apparent permeability coefficient (Papp) was determined according to the protocol previously described by Tavelin et al.. […]

[4] = cited from earlier work
[5] = test system: Caco-2 cell monolayer; test: in vitro
Protocol: as §1, §2, §3

Structure (SMILES)	Mass Retention (PAMPA) ([1]; 5 h, 10 µM, pH 7.4) [%]	Papp at 5 h, 10 µM [1] [×10⁻⁶ cm/s]	Caco-2 monolayer integrity (TEER before and after treatment) [2]	PAMPA permeability (in words) [1]	Papp A→B [3] [×10⁻⁶ cm/s]	Time to peak levels after intranasal administration [4] [min]	Caco-2 permeability compared to OT (in words) [5]
Cn1c(=O)c2c(ncn2C)n(C)c1=O [Caffeine, reference compound]	26	22 ± 11.2					
CC[C@H](C)[C@@H]1NC(=O)[C@H](Cc2ccc(O)cc2)NC(=O)[C@@H](NC(=O)OCCOC)CSSC[C@@H](C(=O)N2CCC[C@H]2C(=O)N[C@@H](CC(C)C)C(=O)NCC(N)=O)NC(=O)[C@H](CC(N)=O)NC(=O)[C@H](CCC(N)=O)NC1=O [MeOEt-OT, MeOEt-Cys(&)-Tyr-Ile-Gln-Asn-Cys(&)-Pro-Leu-Gly-NH2]		2.37 ± 0.52					
CCCCCCCCCCOC(=O)N[C@H]1CSSC[C@@H](C(=O)N2CCC[C@H]2C(=O)N[C@@H](CC(C)C)C(=O)NCC(N)=O)NC(=O)[C@H](CC(N)=O)NC(=O)[C@H](CCC(N)=O)NC(=O)[C@H]([C@@H](C)CC)NC(=O)[C@H](Cc2ccc(O)cc2)NC1=O [Dec-OT, Dec-Cys(&)-Tyr-Ile-Gln-Asn-Cys(&)-Pro-Leu-Gly-NH2]		9.28 ± 6.11	stable and high monolayer integrity	significantly better permeability			
CC[C@H](C)[C@@H]1NC(=O)[C@H](Cc2ccc(O)cc2)NC(=O)[C@@H](N)CSSC[C@@H](C(=O)N2CCC[C@H]2C(=O)N[C@@H](CC(C)C)C(=O)NCC(N)=O)NC(=O)[C@H](CC(N)=O)NC(=O)[C@H](CCC(N)=O)NC1=O [OT, Cys(&)-Tyr-Ile-Gln-Asn-Cys(&)-Pro-Leu-Gly-NH2, reference compound]		2.2	stable and high monolayer integrity		7.74 ± 0.53	15 to 30	
CCCOC(=O)N[C@H]1CSSC[C@@H](C(=O)N2CCC[C@H]2C(=O)N[C@@H](CC(C)C)C(=O)NCC(N)=O)NC(=O)[C@H](CC(N)=O)NC(=O)[C@H](CCC(N)=O)NC(=O)[C@H]([C@@H](C)CC)NC(=O)[C@H](Cc2ccc(O)cc2)NC1=O [Prop-OT, Prop-Cys(&)-Tyr-Ile-Gln-Asn-Cys(&)-Pro-Leu-Gly-NH2]		2.97 ± 0.64					
CCCCCCCCOC(=O)N[C@H]1CSSC[C@@H](C(=O)N2CCC[C@H]2C(=O)N[C@@H](CC(C)C)C(=O)NCC(N)=O)NC(=O)[C@H](CC(N)=O)NC(=O)[C@H](CCC(N)=O)NC(=O)[C@H]([C@@H](C)CC)NC(=O)[C@H](Cc2ccc(O)cc2)NC1=O [Oct-OT, Oct-Cys(&)-Tyr-Ile-Gln-Asn-Cys(&)-Pro-Leu-Gly-NH2]		5.93 ± 0.86	stable and high monolayer integrity	significantly better permeability	14 ± 2.27		
CCOC(=O)N[C@H]1CSSC[C@@H](C(=O)N2CCC[C@H]2C(=O)N[C@@H](CC(C)C)C(=O)NCC(N)=O)NC(=O)[C@H](CC(N)=O)NC(=O)[C@H](CCC(N)=O)NC(=O)[C@H]([C@@H](C)CC)NC(=O)[C@H](Cc2ccc(O)cc2)NC1=O [Et-OT, Et-Cys(&)-Tyr-Ile-Gln-Asn-Cys(&)-Pro-Leu-Gly-NH2]		2.78 ± 0.17					
CCCCCCOC(=O)N[C@H]1CSSC[C@@H](C(=O)N2CCC[C@H]2C(=O)N[C@@H](CC(C)C)C(=O)NCC(N)=O)NC(=O)[C@H](CC(N)=O)NC(=O)[C@H](CCC(N)=O)NC(=O)[C@H]([C@@H](C)CC)NC(=O)[C@H](Cc2ccc(O)cc2)NC1=O [Hoc-OT, Hoc-Cys(&)-Tyr-Ile-Gln-Asn-Cys(&)-Pro-Leu-Gly-NH2]		4.67 ± 0.66	stable and high monolayer integrity	significantly better permeability	1.99 ± 0.33		lower permeability than OT
CCCCCCCCCCCCOC(=O)N[C@H]1CSSC[C@@H](C(=O)N2CCC[C@H]2C(=O)N[C@@H](CC(C)C)C(=O)NCC(N)=O)NC(=O)[C@H](CC(N)=O)NC(=O)[C@H](CCC(N)=O)NC(=O)[C@H]([C@@H](C)CC)NC(=O)[C@H](Cc2ccc(O)cc2)NC1=O [Dod-OT, Dod-Cys(&)-Tyr-Ile-Gln-Asn-Cys(&)-Pro-Leu-Gly-NH2]		1.08 ± 0.95	stable and high monolayer integrity	poor permeability			
CCCCOC(=O)N[C@H]1CSSC[C@@H](C(=O)N2CCC[C@H]2C(=O)N[C@@H](CC(C)C)C(=O)NCC(N)=O)NC(=O)[C@H](CC(N)=O)NC(=O)[C@H](CCC(N)=O)NC(=O)[C@H]([C@@H](C)CC)NC(=O)[C@H](Cc2ccc(O)cc2)NC1=O [But-OT, But-Cys(&)-Tyr-Ile-Gln-Asn-Cys(&)-Pro-Leu-Gly-NH2]		2.2 ± 0.3					
